The record followed here is patent US20240376097A1, “BCL-2 Inhibitor” (BeiGene Ltd., priority 2020, published 2024).

The test system of experiment [1] is recombinant human Bcl-2-G101V protein. In words: Bcl-2-G101V TR-FRET Assay. It is filed as binding. Particulars: ratio of biochemical IC50 Bcl-2 G101V / Bcl-2 WT. The procedure, abridged:
(§1)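 IC50 values derive from four-parameter logistic fitting of percent inhibition data. That inhibition of ligand binding to Bcl-2-G101V is computed from the 490 nm/520 nm TR-FRET ratio under 337 nm excitation, over a rising compound concentration series.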
On the technique in general: Time-resolved FRET reads energy transfer from a long-lived donor to a nearby acceptor.

Experiment [2] addresses recombinant human Bcl-2-G101V protein (Homo sapiens (Human), UniProt P10415, G101V). In words: Bcl-2-G101V TR-FRET Assay. Particulars: Bcl-2 G101V mutant, TR-FRET; read-out: Biochemical assay (IC50, nM) Bcl-2 G101V. It is filed as binding. The procedure, abridged: as §1
Experiment [3] relates to RS4;11 (BCL-2 dependent acute lymphoblastic leukemia cell line). The experiment in a line: RS4;11 Cell Proliferation Assay. It is filed as cell-based. Conditions: Homo sapiens, RS4-11, RS4;11 cells, read-out: Cellular proliferation assay (IC50, nM) RS4. The procedure, abridged:
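RS4;11 cells, 50,000 per well in RPMI-1640 with 10% FBS, treated 48 h at 37 °C with a 10-point dilution series topping at 1 μM. Viability read by CellTiter-Glo ATP luminescence; mean IC50 reported.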

Experiment [4] deals with BCL-2 G101V knock-in cell line H96 (derive from RS4;11). In words: Bcl 2-G101V Knock-In RS4;11 Cell Proliferation Assay. It is filed as cell-based. Conditions: Homo sapiens, RS4;11 Bcl-2 G101V knock-in clone H96, 48 hrs, CellTiter-GLO, read-out: Cellular proliferation assay (IC50, nM) RS4. In outline: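 H96, a CRISPR-generated RS4;11 clone carrying BCL2-G101V knock-in (WES/RNA-seq validated), seeded 50,000 per well and exposed 48 h at 37 °C to 10-point dilutions topping at 1 or 10 μM. Viability by CellTiter-Glo luminescence; mean IC50.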
For orientation: Cellular ATP, detected with luciferase, serves as a proxy for viable cell number.

The target of experiment [5] is Recombinant human Bcl-2 protein (Homo sapiens (Human), UniProt P10415). The experiment in a line: Bcl-2 TR-FRET Assay. It is filed as binding. In outline:
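0.05 nM Bcl-2 pre-incubated 0.5 h at room temperature with 10-point compound dilutions (top final 1, 0.1, 0.02 or 0.01 uM) in 20 mM potassium phosphate pH 7.5, 50 mM NaCl, 1 mM EDTA, 0.05% Tween-20, 0.01% BSA; FITC-Bak peptide (0.5 nM) and anti-6His Tb cryptate added, 1 h. IC50 from four-parameter logistic fit.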

Experiment [6] concerns the target recombinant human Bcl-2 D103Y protein (Homo sapiens (Human), UniProt P10415, D103Y). The experiment in a line: Bcl-2-D103Y Biochemical Assay (TR-FRET). It counts as binding. Particulars: for IC50: TR-FRET, FITC labeled Bak peptide; for Ratio of Bcl-2 D103Y/Bcl-2 WT: ratio of IC50. The procedure, abridged:
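Recombinant human Bcl-2 D103Y binding to its ligand measured by TR-FRET (ex 337 nm, em 490/520 nm) with increasing compound concentrations. Percent inhibition from the 490/520 nm ratio; IC50 from four-parameter logistic fit.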

The mark [7] stands for this setting: Bcl-2 wild type, TR-FRET, read-out: Biochemical assay (IC50, nM) Bcl-2 WT.
Where [8] appears, read: wild type Bcl-2, unit inferred, read-out: Bcl-2 WT.

The structures appear in SMILES notation. Like-named read-outs stand apart in the source and are kept apart here.

Consider `COc1nn(C)cc1CN1CCN(C2CC3(CCN(c4ccc(C(=O)NS(=O)(=O)c5ccc(NC[C@H]6CC[C@](C)(O)CC6)c([N+](=O)[O-])c5)c(Oc5cnc6[nH]ccc6c5)c4)CC3)C2)C(c2ccccc2C(C)C)C1` (stereo partly drawn) [Example 71, 2-((1H-pyrrolo[2,3-b]pyridin-5-yl)oxy)-N-((4-((((1r,4r)-4-hydroxy-4-methylcyclohexyl)methyl)amino)-3-nitrophenyl)sulfonyl)-4-(2-(2-(2-isopropylphenyl)-4-((3-methoxy-1-methyl-1H-pyrazol-4-yl)methyl)piperazin-1-yl)-7-azaspiro[3.5]nonan-7-yl)benzamide], for which the “Ratio of Bcl-2 G101V/WT” value in experiment [1] stood at 8.3. Further, the IC50 in experiment [2] came to 0.17 nM; in experiment [3] it was 0.43 nM; in experiment [4], 2 nM; in experiment [5] (setting [7]), 0.02 nM; in experiment [5] (setting [8]), 0.02 nM; in experiment [6] it was 0.15 nM. In addition, in experiment [6], the “Ratio of Bcl-2 D103Y/Bcl-2 WT” value amounted to 7.6.
For `COc1ccc(CN2CCN(C3CC4(CCN(c5ccc(C(=O)NS(=O)(=O)c6ccc(NC[C@H]7CC[C@](C)(O)CC7)c([N+](=O)[O-])c6)c(Oc6cnc7[nH]ccc7c6)c5)CC4)C3)C(c3ccccc3C3CC3)C2)cc1` (stereo partly drawn) [Example 73, 2-((1H-pyrrolo[2,3-b]pyridin-5-yl)oxy)-4-(2-(2-(2-cyclopropylphenyl)-4-(4-methoxybenzyl)piperazin-1-yl)-7-azaspiro[3.5]nonan-7-yl)-N-((4-((((1r,4r)-4-hydroxy-4-methylcyclohexyl)methyl)amino)-3-nitrophenyl)sulfonyl)benzamide], in experiment [1], the “Ratio of Bcl-2 G101V/WT” value came out at 7.9. The IC50 was found to be 0.47 nM in experiment [2]; 0.37 nM in experiment [3]; 2.4 nM in experiment [4]; 0.06 nM in experiment [5] (setting [7]); 0.06 nM in experiment [5] (setting [8]); 0.31 nM in experiment [6]. In experiment [6], the “Ratio of Bcl-2 D103Y/Bcl-2 WT” value worked out at 5.1.
On to `COc1cc(CN2CCN(C3CC4(CCN(c5ccc(C(=O)NS(=O)(=O)c6ccc(NC[C@H]7CC[C@](C)(O)CC7)c([N+](=O)[O-])c6)c(Oc6cnc7[nH]ccc7c6)c5)CC4)C3)C(c3ccccc3C(C)C)C2)cc(OC)c1OC` (stereo partly drawn) [Example 75, 2-((1H-pyrrolo[2,3-b]pyridin-5-yl)oxy)-N-((4-((((1r,4r)-4-hydroxy-4-methylcyclohexyl)methyl)amino)-3-nitrophenyl)sulfonyl)-4-(2-(2-(2-isopropylphenyl)-4-(3,4,5-trimethoxybenzyl)piperazin-1-yl)-7-azaspiro[3.5]nonan-7-yl) benzamide], for which, in experiment [1], the “Ratio of Bcl-2 G101V/WT” value turned out to be 4.7. Moreover, the IC50 worked out at 0.28 nM in experiment [2]; 0.35 nM in experiment [3]; 1.5 nM in experiment [4]; 0.059 nM in experiment [5] (setting [7]); 0.059 nM in experiment [5] (setting [8]); 0.22 nM in experiment [6]. Moreover, the “ratio of Bcl-2 D103Y/Bcl-2 wt, compared with F91b in WO2019210828” value in experiment [6] (comparison in words) is listed as “significantly lower”. In addition, in experiment [6], the “Ratio of Bcl-2 D103Y/Bcl-2 WT” value is recorded as 3.6.
Turning to `CC(C)c1ccccc1C1CN(Cc2ccc3c(c2)OCCO3)CCN1C1CC2(CCN(c3ccc(C(=O)NS(=O)(=O)c4ccc(NC[C@H]5CC[C@](C)(O)CC5)c([N+](=O)[O-])c4)c(Oc4cnc5[nH]ccc5c4)c3)CC2)C1` (stereo partly drawn) [Example 78, 2-((1H-pyrrolo[2,3-b]pyridin-5-yl)oxy)-4-(2-(4-((2,3-dihydrobenzo[b] [1,4]dioxin-6-yl)methyl)-2-(2-isopropylphenyl)piperazin-1-yl)-7-azaspiro[3.5]nonan-7-yl)-N-((4-((((1r,4r)-4-hydroxy-4-methylcyclohexyl)methyl)amino)-3-nitrophenyl)sulfonyl)benzamide], in experiment [1], the “Ratio of Bcl-2 G101V/WT” value is on record as 4.6. For the same compound, the IC50 in experiment [2] turned out to be 0.98 nM; in experiment [3] it was 0.42 nM; in experiment [4] it was 2.6 nM; in experiment [5] (setting [7]), 0.21 nM; in experiment [5] (setting [8]) it was 0.21 nM; in experiment [6], 0.62 nM. In addition, the “Ratio of Bcl-2 D103Y/Bcl-2 WT” value in experiment [6] was found to be 2.9.
